The source of these data is US10399945B2, “Tetrahydronaphthyl urea derivative” (MOCHIDA PHARMACEUTICAL CO., LTD., priority 2017, dated 2019).

For orientation: IC50 means the concentration that inhibits the measured activity by half. Read a low IC50 as higher potency.

Sequence of Human TrkA Protein (P04629 33-796): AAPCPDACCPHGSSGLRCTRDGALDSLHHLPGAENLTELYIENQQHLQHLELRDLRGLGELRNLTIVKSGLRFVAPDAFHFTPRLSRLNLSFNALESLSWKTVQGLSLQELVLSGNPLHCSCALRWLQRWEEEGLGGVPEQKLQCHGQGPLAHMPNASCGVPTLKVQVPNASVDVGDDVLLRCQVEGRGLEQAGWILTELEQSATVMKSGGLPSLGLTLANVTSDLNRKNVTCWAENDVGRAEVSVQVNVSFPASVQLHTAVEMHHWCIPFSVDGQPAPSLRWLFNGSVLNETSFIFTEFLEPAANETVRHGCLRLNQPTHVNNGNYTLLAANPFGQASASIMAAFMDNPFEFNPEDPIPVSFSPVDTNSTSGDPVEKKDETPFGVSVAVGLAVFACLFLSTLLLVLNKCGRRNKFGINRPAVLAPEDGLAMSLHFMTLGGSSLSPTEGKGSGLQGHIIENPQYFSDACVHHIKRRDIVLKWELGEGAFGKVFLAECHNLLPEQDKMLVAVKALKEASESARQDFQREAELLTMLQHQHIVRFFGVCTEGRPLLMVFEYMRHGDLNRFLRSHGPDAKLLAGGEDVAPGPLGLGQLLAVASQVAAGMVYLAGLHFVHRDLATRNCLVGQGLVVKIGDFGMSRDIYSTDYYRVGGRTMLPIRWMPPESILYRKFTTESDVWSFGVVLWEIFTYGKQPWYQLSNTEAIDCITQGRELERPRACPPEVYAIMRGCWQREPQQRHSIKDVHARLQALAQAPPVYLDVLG

This assay has as its target Human TrkA Protein (Homo sapiens (Human), UniProt P04629). The assay is described as follows: Evaluation of Binding Activity for Human TrkA Protein (TrkA LanthaScreen Eu Kinase Binding Assay). The note with it: TrkA enzyme, Kinase Tracer 236, TR-FRET, 60 minutes at room temperature. As for the experimental part:
(Pharmacological Experimental Example 1): Evaluation of Binding Activity for Human TrkA Protein
Measurement was carried out using TrkA LanthaScreen (registered trademark) Eu Kinase Binding Assay (ThermoFisher SCIENTIFIC). To a 384 well plate (Corning), 2.5 μL of the test compound having various concentrations and diluted with Kinase buffer (ThermoFisher SCIENTIFIC) and 2.5 μL of 15 nM TrkA enzyme (ThermoFisher SCIENTIFIC) were added. Moreover, […] Eu-anti-His Tag antibody (ThermoFisher SCIENTIFIC) and 5 μL of 30 nM Kinase (registered trademark) Tracer 236 (ThermoFisher SCIENTIFIC) were added, followed by reaction at room temperature for 60 minutes. After the reaction, the fluorescence intensity of Europium (Emission wavelength 615 nm) and TR-FRET (Emission wavelength 665 nm) with an excitation wavelength of 340 nm were measured with EnVision 2100 (PerkinElmer) to calculate the fluorescence ratio as the amount of the test compound and the TrkA enzyme bonded. The inhibitory activity (IC50 value) of each test compound was calculated with the fluorescence ratio of the well to which a solvent was added instead of the test compound being 0% and the fluorescence ratio of the well without addition of the TrkA protein being 100%.
In Table 1, […] mean Compounds 1 to 62 synthesized in accordance with Examples 1 to 62 described later.
`Cc1cc(NC(=O)N[C@@H]2c3ccccc3C(C)(C)C[C@H]2O)c(-c2ccccc2)nc1-c1ccc(O)nc1` [Compound 20, 1-(6′-hydroxy-3-methyl-6-phenyl-[2,3′-bipyridin]-5-yl)-3-((1R,2R)-2-hydroxy-4,4-dimethyl-1,2,3,4-tetrahydronaphthalen-1-yl)urea] yielded an IC50 of at most 0.05 µM.

Compound `Cc1cc(NC(=O)N[C@@H]2c3cc(F)c(F)cc3C(C)(C)C[C@H]2O)c(C2CCOCC2)nc1C(N)=O` (racemic) [Compound 58, rac-5-(3-((1R,2R)-6,7-difluoro-2-hydroxy-4,4-dimethyl-1,2,3,4-tetrahydronaphthalen-1-yl)ureido)-3-methyl-6-(tetrahydro-2H-pyran-4-yl)picolinamide] came in with an IC50 of 0.05 to 1 µM.

With `Cc1ncc(-c2nc(-c3ccccc3)c(NC(=O)N[C@@H]3c4cc(F)c(F)cc4C(C)(C)C[C@H]3O)cc2C)cn1` (racemic) [Compound 44a], the IC50 was at most 0.05 µM.

Take `Cc1cc(NC(=O)N[C@@H]2c3ccccc3C(C)(C)C[C@H]2O)c(-c2ccccc2)nc1-c1ccc(C#N)nc1` [Compound 13, 1-(6′-cyano-3-methyl-6-phenyl-[2,3′-bipyridin]-5-yl)-3-((1R,2R)-2-hydroxy-4,4-dimethyl-1,2,3,4-tetrahydronaphthalen-1-yl)urea]: the IC50 is at most 0.05 µM.

With `Cc1cnc(-c2ccccc2)c(NC(=O)N[C@@H]2c3cc(F)c(F)cc3C(C)(C)C[C@H]2O)c1` (racemic) [Compound 37a], the IC50 was at most 0.05 µM.

As to `Cc1nnc(CNC(=O)c2nc(-c3ccccc3)c(NC(=O)N[C@@H]3c4cc(F)c(F)cc4C(C)(C)C[C@H]3O)cc2C)o1` (racemic) [Compound 41, rac-5-(3-((1R,2R)-6,7-difluoro-2-hydroxy-4,4-dimethyl-1,2,3,4-tetrahydronaphthalen-1-yl)ureido)-3-methyl-N-((5-methyl-1,3,4-oxadiazol-2-yl)methyl)-6-phenylpicolinamide], the IC50 is at most 0.05 µM.

Compound `CC1(C)C[C@@H](O)[C@H](NC(=O)Nc2cccnc2-c2ccccc2)c2cc(F)c(F)cc21` (racemic) [Compound 36, rac-1-((1R,2R)-6,7-difluoro-2-hydroxy-4,4-dimethyl-1,2,3,4-tetrahydronaphthalen-1-yl)-3-(2-phenylpyridin-3-yl)urea] had an IC50 of at most 0.05 µM.

`Cc1ncc(-c2nc(-c3ccccc3)c(NC(=O)N[C@@H]3c4cc(F)c(F)cc4C(C)(C)C[C@H]3O)cc2C)cn1` (racemic) [Compound 44, rac-1-((1R,2R)-6,7-difluoro-2-hydroxy-4,4-dimethyl-1,2,3,4-tetrahydronaphthalen-1-yl)-3-(5-methyl-6-(2-methylpyrimidin-5-yl)-2-phenylpyridin-3-yl)urea] displayed an IC50 of at most 0.05 µM.

`Cc1cc(NC(=O)N[C@@H]2c3ccccc3C(C)(C)C[C@H]2O)c(-c2ccccc2)nc1CO` [Compound 8, 1-((1R,2R)-2-hydroxy-4,4-dimethyl-1,2,3,4-tetrahydronaphthalen-1-yl)-3-(6-(hydroxymethyl)-5-methyl-2-phenylpyridin-3-yl)urea] came in with an IC50 of at most 0.05 µM.

Take `Cc1cc(NC(=O)N[C@@H]2c3ccccc3C(C)(C)C[C@H]2O)c(-c2ccccc2)nc1-c1ccc(C#N)cc1` [Compound 16, 1-(6-(4-cyanophenyl)-5-methyl-2-phenylpyridin-3-yl)-3-((1R,2R)-2-hydroxy-4,4-dimethyl-1,2,3,4-tetrahydronaphthalen-1-yl)urea]: the IC50 is at most 0.05 µM.

`Cc1cnc(C2CCOCC2)c(NC(=O)N[C@@H]2c3ccccc3C(C)(C)C[C@H]2O)c1` (racemic) [Compound 26, rac-1-((1R,2R)-2-hydroxy-4,4-dimethyl-1,2,3,4-tetrahydronaphthalen-1-yl)-3-(5-methyl-2-(tetrahydro-2H-pyran-4-yl)pyridin-3-yl)urea] showed an IC50 of at most 0.05 µM.

In turn, `Cc1nnc(CNC(=O)c2nc(-c3ccccc3)c(NC(=O)N[C@@H]3c4cc(F)c(F)cc4C(C)(C)C[C@H]3O)cc2C)o1` (racemic) [Compound 41a] gave an IC50 of at most 0.05 µM.

Compound `Cc1cc(-c2nc(-c3ccccc3)c(NC(=O)N[C@@H]3c4cc(F)c(F)cc4C(C)(C)C[C@H]3O)cc2C)cnn1` (racemic) [Compound 49, rac-1-((1R,2R)-6,7-difluoro-2-hydroxy-4,4-dimethyl-1,2,3,4-tetrahydronaphthalen-1-yl)-3-(5-methyl-6-(6-methylpyridazin-4-yl)-2-phenylpyridin-3-yl)urea] registered an IC50 of at most 0.05 µM.

Regarding `Cc1ccnc(-c2ccccc2)c1NC(=O)N[C@@H]1c2cc(F)c(F)cc2C(C)(C)C[C@H]1O` (racemic) [Compound 38, rac-1-((1R,2R)-6,7-difluoro-2-hydroxy-4,4-dimethyl-1,2,3,4-tetrahydronaphthalen-1-yl)-3-(4-methyl-2-phenylpyridin-3-yl)urea], the IC50 was 0.05 to 1 µM.

In the case of `Cc1cc(NC(=O)N[C@@H]2c3cc(F)c(F)cc3C(C)(C)C[C@H]2O)c(-c2ccccc2)nc1CO` (racemic) [Compound 43, rac-1-((1R,2R)-6,7-difluoro-2-hydroxy-4,4-dimethyl-1,2,3,4-tetrahydronaphthalen-1-yl)-3-(6-(hydroxymethyl)-5-methyl-2-phenylpyridin-3-yl)urea], the IC50 was at most 0.05 µM.

In turn, `Cc1ccc(NC(=O)N[C@@H]2c3cc(F)c(F)cc3C(C)(C)C[C@H]2O)c(-c2ccccc2)n1` (racemic) [Compound 39, rac-1-((1R,2R)-6,7-difluoro-2-hydroxy-4,4-dimethyl-1,2,3,4-tetrahydronaphthalen-1-yl)-3-(6-methyl-2-phenylpyridin-3-yl)urea] came in with a 50% inhibitory concentration (IC50) of at most 0.05 µM.

As for `Cc1cnc(-c2ccccc2)c(NC(=O)N[C@@H]2c3ccccc3C(C)(C)C[C@H]2O)c1` [Compound 7, 1-((1R,2R)-2-hydroxy-4,4-dimethyl-1,2,3,4-tetrahydronaphthalen-1-yl)-3-(5-methyl-2-phenylpyridin-3-yl)urea], the IC50 was at most 0.05 µM.

`CC1(C)C[C@@H](O)[C@H](NC(=O)Nc2cccnc2-c2ccccc2)c2ccccc21` (racemic) [Compound 1, rac-1-((1R,2R)-2-hydroxy-4,4-dimethyl-1,2,3,4-tetrahydronaphthalen-1-yl)-3-(2-phenylpyridin-3-yl)urea] returned an IC50 of at most 0.05 µM.

Compound `Cc1cc(NC(=O)N[C@@H]2c3cc(F)c(F)cc3C(C)(C)C[C@H]2O)c(C2CCOCC2)nc1C(=O)NCC(C)(C)O` (racemic) [Compound 60, rac-5-(3-((1R,2R)-6,7-difluoro-2-hydroxy-4,4-dimethyl-1,2,3,4-tetrahydronaphthalen-1-yl)ureido)-N-(2-hydroxy-2-methylpropyl)-3-methyl-6-(tetrahydro-2H-pyran-4-yl)picolinamide] showed an IC50 of 0.05 to 1 µM.

For `Cc1cc(NC(=O)N[C@@H]2c3ccccc3C(C)(C)C[C@H]2O)c(-c2ccccc2)nc1-c1cn[nH]c1` [Compound 18, 1-((1R,2R)-2-hydroxy-4,4-dimethyl-1,2,3,4-tetrahydronaphthalen-1-yl)-3-(5-methyl-2-phenyl-6-(1H-pyrazol-4-yl)pyridin-3-yl)urea], the IC50 was at most 0.05 µM.

For `Cc1cc(NC(=O)N[C@@H]2c3cc(F)c(F)cc3C(C)(C)C[C@H]2O)c(C2CCOCC2)nc1-c1cn[nH]c1` (racemic) [Compound 61, rac-1-((1R,2R)-6,7-difluoro-2-hydroxy-4,4-dimethyl-1,2,3,4-tetrahydronaphthalen-1-yl)-3-(5-methyl-6-(1H-pyrazol-4-yl)-2-(tetrahydro-2H-pyran-4-yl)pyridin-3-yl)urea], the IC50 lay within 0.05 to 1 µM.

Compound “rac-1-((1R,2R)-6,7-difluoro-2-hydroxy-4,4-dimethyl-1,2,3,4-tetrahydronaphthalen-1-yl)-3-(2-(hydroxymethyl)-3-methyl-6-phenyl-[2,4′-bipyridin]-5-yl)urea [Compound 56]” registered an IC50 of at most 0.05 µM.

In turn, `Cc1ncc(-c2nc(-c3ccccc3)c(NC(=O)N[C@@H]3c4cc(F)c(F)cc4C(C)(C)C[C@H]3O)cc2C)s1` (racemic) [Compound 50, rac-1-((1R,2R)-6,7-difluoro-2-hydroxy-4,4-dimethyl-1,2,3,4-tetrahydronaphthalen-1-yl)-3-(5-methyl-6-(2-methylthiazol-5-yl)-2-phenylpyridin-3-yl)urea] gave an IC50 of 0.05 to 1 µM.

With `Cc1cc(NC(=O)N[C@@H]2c3ccccc3C(C)(C)C[C@H]2O)c(-c2ccccc2)nc1-c1cncc(C(F)(F)F)c1` [Compound 11, 1-((1R,2R)-2-hydroxy-4,4-dimethyl-1,2,3,4-tetrahydronaphthalen-1-yl)-3-(3-methyl-6-phenyl-5′-(trifluoromethyl)-[2,3′-bipyridin]-5-yl)urea], the IC50 is at most 0.05 µM.

Compound `Cc1cc(NC(=O)N[C@@H]2c3ccccc3C(C)(C)C[C@H]2O)c(-c2ccccc2)nc1-c1cnc(C(F)(F)F)nc1` [Compound 15, 1-((1R,2R)-2-hydroxy-4,4-dimethyl-1,2,3,4-tetrahydronaphthalen-1-yl)-3-(5-methyl-2-phenyl-6-(2-(trifluoromethyl)pyrimidin-5-yl)pyridin-3-yl)urea] showed an IC50 of at most 0.05 µM.

Compound `Cc1cc(NC(=O)N[C@@H]2c3ccccc3C(C)(C)C[C@H]2O)c(C2CCOCC2)nc1-c1cn[nH]c1` (racemic) [Compound 30, rac-1-((1R,2R)-2-hydroxy-4,4-dimethyl-1,2,3,4-tetrahydronaphthalen-1-yl)-3-(5-methyl-6-(1H-pyrazol-4-yl)-2-(tetrahydro-2H-pyran-4-yl)pyridin-3-yl)urea] had an IC50 of at most 0.05 µM.
